{
  "source": "paper PMC7472518",
  "about": "“Ultrasensitive Detection of Enzymatic Activity Using Single Molecule Arrays” (Journal of the American Chemical Society, 2020)",
  "key": {"Bcr-Abl": {"tested_on": "Bcr-Abl", "settings": "read-out: IC50 (reported); cited from earlier work"}, "Abl": {"molecular_target": "T1, Abl (Homo sapiens, UniProt P00519)", "T1 construct": "purchased Millipore (Burlington, MA) 14-529", "T1 sequence (P00519 whole entry)": "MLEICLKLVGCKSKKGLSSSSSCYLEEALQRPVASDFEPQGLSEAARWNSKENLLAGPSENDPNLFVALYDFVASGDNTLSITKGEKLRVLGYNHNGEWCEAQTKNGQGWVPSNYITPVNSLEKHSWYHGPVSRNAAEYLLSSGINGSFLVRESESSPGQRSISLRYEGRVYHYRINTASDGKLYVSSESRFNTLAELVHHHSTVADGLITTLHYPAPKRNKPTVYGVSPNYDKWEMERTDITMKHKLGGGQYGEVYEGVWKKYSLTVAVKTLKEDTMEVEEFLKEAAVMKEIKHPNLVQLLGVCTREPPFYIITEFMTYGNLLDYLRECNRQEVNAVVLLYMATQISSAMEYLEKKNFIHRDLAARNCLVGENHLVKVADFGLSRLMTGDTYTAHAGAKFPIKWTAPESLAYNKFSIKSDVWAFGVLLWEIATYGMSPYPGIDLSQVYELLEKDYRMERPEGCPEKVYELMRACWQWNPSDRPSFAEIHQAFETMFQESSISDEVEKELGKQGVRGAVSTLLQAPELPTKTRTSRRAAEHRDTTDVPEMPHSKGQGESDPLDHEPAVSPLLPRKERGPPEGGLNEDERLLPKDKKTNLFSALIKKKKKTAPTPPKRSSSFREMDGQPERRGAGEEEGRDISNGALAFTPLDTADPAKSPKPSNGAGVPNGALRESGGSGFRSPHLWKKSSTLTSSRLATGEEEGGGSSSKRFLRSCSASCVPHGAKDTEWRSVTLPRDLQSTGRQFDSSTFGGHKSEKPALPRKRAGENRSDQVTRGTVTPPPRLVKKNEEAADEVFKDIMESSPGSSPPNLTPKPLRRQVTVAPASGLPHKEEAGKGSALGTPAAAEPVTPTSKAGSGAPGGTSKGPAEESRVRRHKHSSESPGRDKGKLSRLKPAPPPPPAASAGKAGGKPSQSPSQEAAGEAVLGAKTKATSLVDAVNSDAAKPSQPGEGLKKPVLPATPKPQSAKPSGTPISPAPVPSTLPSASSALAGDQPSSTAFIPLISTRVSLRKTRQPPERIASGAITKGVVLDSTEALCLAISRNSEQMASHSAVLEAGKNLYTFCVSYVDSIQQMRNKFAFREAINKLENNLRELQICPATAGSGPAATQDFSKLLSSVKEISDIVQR", "experiment": "eSimoa ATP titration for Km, Abl", "type": "biochemical", "settings": "calculated from the EC50 of the ATP response curve", "source_text": "(§1) We first determined the Km values for Src and Abl. Different concentrations of ATP were used in the phosphorylation reaction, while the concentrations of peptide-modified beads and enzymes were kept constant."}, "Src": {"molecular_target": "T2, Src (Homo sapiens, UniProt P12931)", "T2 construct": "purchased Millipore (Burlington, MA) 14-326", "experiment": "eSimoa ATP titration for Km, Src", "type": "biochemical", "settings": "calculated from the EC50 of the ATP response curve", "source_text": "as §1"}},
  "note": "Counter-ions that a name gives are not always drawn.",
  "data": [
    {"smiles": "COc1cc(Nc2c(C#N)cnc3cc(OCCCN4CCN(C)CC4)c(OC)cc23)c(Cl)cc1Cl", "note": "[bosutinib]", "values": [
      {"measurement": "IC50", "setting": "Bcr-Abl", "value": "[…]"}
    ]},
    {"smiles": "Nc1ncnc2c1ncn2[C@@H]1O[C@H](COP(=O)(O)OP(=O)(O)OP(=O)(O)O)[C@@H](O)[C@H]1O", "note": "[ATP, adenosine 5′-triphosphate (ATP) disodium salt hydrate]", "values": [
      {"measurement": "Km", "setting": "Abl", "value": 3.69, "unit": "µM"},
      {"measurement": "Km", "setting": "Src", "value": 29.2, "unit": "µM"}
    ]}
  ]
}
